Patent EP4603105A1, “PHARMACEUTICAL COMPOSITION CONTAINING CYCLIC COMPOUND HAVING SELECTIVE KRAS INHIBITORY EFFECT AGAINST HRAS AND NRAS” (CHUGAI SEIYAKU KABUSHIKI KAISHA, priority 2022, dated 2024)
*1 amine or outer side, *2 acyl side, *3 side chain or, on linkers, in order; H or OH if unused. Where a SMILES comes first, the peptide text is derived from it. Bridges are numbered along the chain shown (N, C = ends). [ ]: non-standard residue; d: D form. The star is where a group is joined. hPhe(3,5-F2-4-CF3) = N[C@@H](CCc1cc(F)c(C(F)(F)F)c(F)c1)C(=O)O; hPhe(3-Cl-4-CF3) = N[C@@H](CCc1ccc(C(F)(F)F)c(Cl)c1)C(=O)O; X34 = COCCN([C@@H](Cc1ccc(C(F)(F)F)cc1)C(=O)[*:2])[*:1]; NPrPhe(4-CF3) = CCCN[C@@H](Cc1ccc(C(F)(F)F)cc1)C(=O)O; NMeAbu(4,4,4-F3) = CN[C@@H](CC(F)(F)F)C(=O)O; NMeGly(cPent) = CN[C@H](C(=O)O)C1CCCC1; Ac4c(3,3-Me2) = CC1(C)CC(N)(C(=O)O)C1; Gly(cPent) = N[C@H](C(=O)O)C1CCCC1; NMeD = CN[C@@H](CC(=O)O)C(=O)O; NMeL = CN[C@@H](CC(C)C)C(=O)O; Morpholide = C1CN(*)CCO1; NMeA = CN[C@@H](C)C(=O)O; Ac5c = NC1(C(=O)O)CCCC1; Aze = O=C(O)[C@@H]1CCN1; NEtG = CCNCC(=O)O; Sar = CNCC(=O)O; Propyl = CCC*

Experiments:
[1] = target: GDP-bound NRAS wild-type protein (Homo sapiens, UniProt P01111); experiment: Binding to NRAS by surface plasmon resonance (SPR), KD and KD ratio to KRAS
GDP-bound NRAS wild-type protein, sequence (P01111 whole entry): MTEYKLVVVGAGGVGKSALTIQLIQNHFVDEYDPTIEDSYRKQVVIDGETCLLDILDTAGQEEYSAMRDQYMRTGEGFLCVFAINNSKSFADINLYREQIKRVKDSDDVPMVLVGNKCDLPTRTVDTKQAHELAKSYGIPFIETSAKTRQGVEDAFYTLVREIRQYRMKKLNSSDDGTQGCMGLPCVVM
Procedure, shortened: (§1)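 Compound binding is evaluated by SPR single-cycle kinetics, with concentrations added intermittently from low to high for 75 s each. Target surfaces carry GDP-loaded biotinylated Avi-RAS at about 100–300 RU, regenerated after each cycle; temperature 30°C. A 1:1 binding model gives KD.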

HRAS wild-type protein = HRAS wild-type protein (Homo sapiens, UniProt P01112); experiment: Binding to HRAS by surface plasmon resonance (SPR), KD and KD ratio to KRAS
HRAS wild-type protein, sequence (P01112 whole entry): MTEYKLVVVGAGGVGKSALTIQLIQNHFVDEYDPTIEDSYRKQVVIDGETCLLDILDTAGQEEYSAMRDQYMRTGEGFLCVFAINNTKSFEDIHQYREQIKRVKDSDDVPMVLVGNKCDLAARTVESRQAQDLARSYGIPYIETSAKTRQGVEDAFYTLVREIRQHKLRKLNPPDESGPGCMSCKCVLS
Procedure, shortened: as §1

[2] = tested on: human lung cancer strain NCI-H441; assay type: cell-based
Procedure, shortened: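 Proliferation was scored by […] measured after the reagent was added to cultures kept at 37°C in 5% carbon dioxide.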

[3] = ratio of KD for GDP-bound NRAS wild-type protein to KD for KRAS
[4] = ratio of KD for HRAS wild-type protein to KD for KRAS
[5] = ratio of the KD value with respect to GDP-bound NRAS wild-type protein to the KD value with respect to KRAS
[6] = ratio of the KD value with respect to HRAS wild-type protein to the KD value with respect to KRAS

| SMILES | NRAS /KRAS [1, 3] | HRAS /KRAS (HRAS wild-type protein; [4]) | IC50 [2] [nM] | NRAS /KRAS [1, 5] | HRAS /KRAS (HRAS wild-type protein; [6]) | NRAS /KRAS ([1]; ratio of KD value for GDP-bound NRAS wild-type protein to KD value for KRAS (SPR)) | HRAS /KRAS (HRAS wild-type protein; ratio of KD value for HRAS wild-type protein to KD value for KRAS (SPR)) |
| --- | --- | --- | --- | --- | --- | --- | --- |
| C=CCCCC[C@H]1C(=O)N[C@@H]([C@@H](C)CC)C(=O)N(C)CC(=O)N(C)[C@H]2CCCCN(C2=O)[C@@H](Cc2ccc(C(F)(F)F)cc2)C(=O)N(C)CC(=O)N[C@@H](CCc2cc(F)c(C(F)(F)F)c(F)c2)C(=O)N2C[C@H](OCC)C[C@H]2C(=O)N[C@](C)(CC=C)C(=O)N(C)[C@@H](C2CCCC2)C(=O)N(C)[C@H](C(=O)N2CCOCC2)CC(=O)N1C [PP0877] | C (A compound having a KD ratio of 0.1 or more and less than 3 is denoted as C) | B (a compound having 3 or more and less than 10 is denoted as B) | 18.8 |  |  |  |  |
| CCC[C@H]1C(=O)N[C@@H]([C@@H](C)CC)C(=O)N(C)CC(=O)N(C)[C@H]2C/C=C\CCN(C2=O)[C@@H](CC2CCC(F)(F)CC2)C(=O)N(C)CC(=O)N[C@@H](CCc2ccc(C(F)(F)F)c(OC)c2)C(=O)N2C[C@H](OCC)C[C@H]2C(=O)N(C)C2(CCC2)C(=O)N(C)[C@@H](C2CCCC2)C(=O)N(C)[C@H](C(=O)N(C)C)CC(=O)N1C [PP2348] |  |  | 52.7 | A (a compound having 10 or more and less than 20 is denoted as A) | A (a compound having 10 or more and less than 20 is denoted as A) |  |  |
| CCO[C@@H]1C[C@H]2C(=O)NC3(CCC3)C(=O)N(C)[C@@H](C3CCCC3)C(=O)N(C)[C@H](C(=O)N3CCOCC3)CC(=O)N(C)[C@@H](CC(C)C)C(=O)N[C@@H]([C@@H](C)CC)C(=O)N(C)CC(=O)N(C)[C@H]3CCCCCN(C3=O)[C@@H](Cc3ccc4sccc4c3)C(=O)N(C)CC(=O)N[C@@H](CCc3cc(F)c(C(F)(F)F)c(F)c3)C(=O)N2C1 [PP0920] | B (a compound having 3 or more and less than 10 is denoted as B) | B (a compound having 3 or more and less than 10 is denoted as B) | 75.5 |  |  |  |  |
| CCCN1C(=O)CN(C)C(=O)CN(CC)C(=O)[C@H](C2CCCC2)NC(=O)[C@H](CC(C)C)N(C)C(=O)C[C@@H](C(=O)N2CCOCC2)N(C)C(=O)[C@H](C2CCCC2)N(C)C(=O)C2(CCCC2)NC(=O)[C@@H]2CCCN2C(=O)[C@H](CCc2ccc(C(F)(F)F)c(Cl)c2)NC(=O)CN(C)C(=O)[C@@H]1Cc1ccc(C(F)(F)F)cc1 [PP0293] ([NMeL][Gly(cPent)][NEtG][Sar][NPrPhe(4-CF3)][Sar][hPhe(3-Cl-4-CF3)]P[Ac5c][NMeGly(cPent)][NMeD]-Morpholide; lactam N-11) | B (a compound having 3 or more and less than 10 is denoted as B) | C (A compound having a KD ratio of 0.1 or more and less than 3 is denoted as C) | 37.6 |  |  |  |  |
| CCC[C@H]1C(=O)N[C@@H]([C@@H](C)CC)C(=O)N(C)CC(=O)N(C)[C@H]2C/C=C\CCN(C2=O)[C@@H](Cc2ccc(C(F)(F)F)cc2)C(=O)N(C)CC(=O)N[C@@H](CCc2ccc(C(F)(F)F)c(Cl)c2)C(=O)N2CC3(CC3)C[C@H]2C(=O)NC2(CC(C)(C)C2)C(=O)N(C)[C@@H](CC(C)C)C(=O)N(C)[C@H](C(=O)N(C)C)CC(=O)N1C [PP2987] | AA (a compound having 20 or more is denoted as AA) | A (a compound having 10 or more and less than 20 is denoted as A) | 31.7 |  |  |  |  |
| CCCO[C@H](C)[C@@H]1NC(=O)[C@H](CC(C)C)N(C)C(=O)C[C@@H](C(=O)N2CCOCC2)N(C)C(=O)[C@H](C2CCCC2)N(C)C(=O)C2(CC(C)(C)C2)NC(=O)[C@@H]2CCCN2C(=O)[C@H](CCc2ccc(C(F)(F)F)c(Cl)c2)NC(=O)CN(C)C(=O)[C@H](Cc2ccc(C(F)(F)F)cc2)N(CCC)C(=O)CN(C)C(=O)CN(C)C1=O [PP1965] ([NMeL]T(Propyl)[Sar][Sar][NPrPhe(4-CF3)][Sar][hPhe(3-Cl-4-CF3)]P[Ac4c(3,3-Me2)][NMeGly(cPent)][NMeD]-Morpholide; lactam N-11) |  |  | 17.4 | B (a compound having 3 or more and less than 10 is denoted as B) | B (a compound having 3 or more and less than 10 is denoted as B) |  |  |
| CC[C@H](C)[C@@H]1NC(=O)[C@H](CC(C)C)N(C)C(=O)C[C@@H](C(=O)N(C)C)N(C)C(=O)[C@H](C2CCCC2)N(C)C(=O)C2(CC(C)(C)C2)NC(=O)[C@@H]2CCCN2C(=O)[C@H](CCc2cc(F)c(C(F)(F)F)c(F)c2)NC(=O)CN(C)C(=O)[C@H](Cc2ccc(C(F)(F)F)cc2)N2CC/C=C\C[C@@H](C2=O)N(C)C(=O)CN(C)C1=O [PP1727] |  |  | 4 |  |  | A (a compound having 10 or more and less than 20 is denoted as A) | A (a compound having 10 or more and less than 20 is denoted as A) |
| C#CCN1CC(=O)N(C)[C@H]2C/C=C\CCN(C2=O)[C@@H](Cc2ccc(C(F)(F)F)cc2)C(=O)N(C)CC(=O)N[C@@H](CCc2cc(F)c(C(F)(F)F)c(F)c2)C(=O)N2C[C@H](OCC)C[C@H]2C(=O)NC2(CC(C)(C)C2)C(=O)N(C)[C@@H](C2CCCC2)C(=O)N(C)[C@H](C(=O)N(C)C)CC(=O)N(C)[C@@H](CC)C(=O)N[C@@H]([C@@H](C)CC)C1=O [PP2087] |  |  | 4.8 | A (a compound having 10 or more and less than 20 is denoted as A) | A (a compound having 10 or more and less than 20 is denoted as A) |  |  |
| CCOC[C@H]1C(=O)N[C@@H]([C@@H](C)CC)C(=O)N(C)CC(=O)N(C)[C@H]2C/C=C\CCN(C2=O)[C@@H](Cc2ccc(C(F)(F)F)cc2)C(=O)N(C)CC(=O)N[C@@H](CCc2ccc(C(F)(F)F)c(OC)c2)C(=O)N2C[C@@H](C)C[C@H]2C(=O)NC2(CC(C)(C)C2)C(=O)N(C)[C@@H](C2CCCC2)C(=O)N(C)[C@H](C(=O)N(C)CC)CC(=O)N1C [PP1993] |  |  | 13.3 | A (a compound having 10 or more and less than 20 is denoted as A) | A (a compound having 10 or more and less than 20 is denoted as A) |  |  |
| CCO[C@@H]1C[C@H]2C(=O)NC3(CCC3)C(=O)N(C)[C@@H](C3CCCC3)C(=O)N(C)[C@H](C(=O)N3CCOCC3)CC(=O)N(C)[C@@H](COC)C(=O)N[C@@H]([C@@H](C)CC)C(=O)N(C)CC(=O)N(C)[C@H]3CCCCN(C3=O)[C@@H](Cc3ccc(C(F)(F)F)cc3)C(=O)N(C)CC(=O)N[C@@H](CCc3cc(F)c(C(F)(F)F)c(F)c3)C(=O)N2C1 [PP0719] |  |  | 8.5 | C (A compound having a KD ratio of 0.1 or more and less than 3 is denoted as C) | B (a compound having 3 or more and less than 10 is denoted as B) |  |  |
| CCCN1C(=O)CN(C)C(=O)CN(C)C(=O)[C@H]([C@@H](C)CC)NC(=O)[C@H](CC(C)C)N(C)C(=O)C[C@@H](C(=O)N(C)C)N(C)C(=O)[C@H](CC(F)(F)F)N(C)C(=O)C2(CCCC2)NC(=O)[C@@H]2CCCN2C(=O)[C@H](CCc2cc(F)c(C(F)(F)F)c(F)c2)NC(=O)CN(C)C(=O)[C@@H]1Cc1ccc(C(F)(F)F)cc1 [PP0746] ([NMeL]I[Sar][Sar][NPrPhe(4-CF3)][Sar][hPhe(3,5-F2-4-CF3)]P[Ac5c][NMeAbu(4,4,4-F3)][NMeD]-NMe2; lactam N-11) |  |  | 35.4 | B (a compound having 3 or more and less than 10 is denoted as B) | C (A compound having a KD ratio of 0.1 or more and less than 3 is denoted as C) |  |  |
| CCO[C@@H]1C[C@H]2C(=O)NC3(CC=CC3)C(=O)N(C)[C@@H](C3CCCC3)C(=O)N(C)[C@H](C(=O)N3CCOCC3)CC(=O)N(C)[C@@H](COC)C(=O)N[C@@H]([C@@H](C)CC)C(=O)N(C)CC(=O)N(C)[C@H]3CCCCCN(C3=O)[C@@H](Cc3ccc(C(F)(F)F)cc3)C(=O)N(C)CC(=O)N[C@@H](CCc3cc(F)c(C(F)(F)F)c(F)c3)C(=O)N2C1 [PP0842] | B (a compound having 3 or more and less than 10 is denoted as B) | B (a compound having 3 or more and less than 10 is denoted as B) | 174 |  |  |  |  |
| CC[C@H](C)[C@@H]1NC(=O)[C@H](CC(C)C)N(C)C(=O)C[C@@H](C(=O)N2CCOCC2)N(C)C(=O)[C@H](C2CCCC2)N(C)C(=O)C2(CCCC2)NC(=O)[C@@H]2CCCN2C(=O)[C@H](CCc2ccc(C(F)(F)F)c(Cl)c2)NC(=O)CN(C)C(=O)[C@H](Cc2ccc(C(F)(F)F)cc2)N(CCOC)C(=O)[C@@H]2CCN2C(=O)[C@H](C)N(C)C1=O [PP0118] ([NMeL]I[NMeA][Aze][X34][Sar][hPhe(3-Cl-4-CF3)]P[Ac5c][NMeGly(cPent)][NMeD]-Morpholide; lactam N-11) | C (A compound having a KD ratio of 0.1 or more and less than 3 is denoted as C) | C (A compound having a KD ratio of 0.1 or more and less than 3 is denoted as C) | 6 |  |  |  |  |
| CCC[C@H]1C(=O)N[C@@H]([C@@H](C)CC)C(=O)N2CCC[C@H]2C(=O)N(C)[C@H]2C/C=C\CCN(C2=O)[C@@H](Cc2ccc(C(F)(F)F)cc2)C(=O)N(C)CC(=O)N[C@@H](CCc2ccc(C(F)(F)F)c(OC)c2)C(=O)N2C[C@H](OCC)C[C@H]2C(=O)N(C)C2(CCC2)C(=O)N(C)[C@@H](C(CC)CC)C(=O)N(C)[C@H](C(=O)N(C)C)CC(=O)N1C [PP2317] |  |  | 12.5 | A (a compound having 10 or more and less than 20 is denoted as A) | A (a compound having 10 or more and less than 20 is denoted as A) |  |  |
| C#CC[C@H]1C(=O)N[C@@H]([C@@H](C)CC)C(=O)N(C)CC(=O)N(C)[C@H]2C/C=C\CCN(C2=O)[C@@H](Cc2ccc(C(F)(F)F)cc2)C(=O)N(C)CC(=O)N[C@@H](CCc2cc(F)c(C(F)(F)F)c(F)c2)C(=O)N2C[C@H](OCC)C[C@H]2C(=O)NC2(CCC2)C(=O)N(C)[C@@H](C2CCCC2)C(=O)N(C)[C@H](C(=O)N(C)C)CC(=O)N1C [PP1115] | A (a compound having 10 or more and less than 20 is denoted as A) | A (a compound having 10 or more and less than 20 is denoted as A) | 29 |  |  |  |  |
